Assay results as given in US9849130B2 (KamTek, Inc., priority 2014, dated 2017).
Where “and” joins values, the source holds several entries; their conditions need not be identical. Equal values may be shown once. Read-outs that look alike come from different tables or passages of the source.

Experiments:
[1] = tested on: Clostridium difficile (CD) strains; assay: microbe, parasite or virus in culture; type: cell-based
C. perfringens MH310 = assay: microbe, parasite or virus in culture; type: cell-based; conditions: Clostridium perfringens, MH310, C. perfringens MH310
C. difficile = assay: Minimum bactericidal concentration (MBC) against C. difficile; type: cell-based, Clostridium difficile; conditions: for MBC: Clostridioides difficile
CD strains = assay: In vitro activity of CFM + additional antimicrobial agent against CD (MIC alone/combination, FIC, ΣFIC); type: cell-based, Clostridium difficile; conditions: for MIC: Clostridioides difficile, read-out: MIC alone
[2] = Test 1, CD strain VPI 10463, CFM + VAN
[3] = Test 9, CD strain NR32885, CFM + VAN
[4] = Test 11, CD strain NR32885, CFM + VAN
[5] = Test 12, CD strain NR32885, CFM + MET
[6] = Test 18, CD strain NR32888, CFM + VAN
[7] = Test 2, CD strain VPI 10463, CFM + VAN
[8] = Test 3, CD strain VPI 10463, CFM + MET
[9] = Test 4, CD strain VPI 10463, CFM + MET
[10] = Test 5, CD strain NR32889, CFM + VAN
[11] = Test 6, CD strain NR32890, CFM + VAN
[12] = Test 7, CD strain NR32885, CFM + VAN
[13] = Test 8, CD strain NR32885, CFM + MET
[14] = Test 10, CD strain NR32885, CFM + MET
[15] = Test 13, CD strain BAA1805 (BI/NAP1/027), CFM + VAN
[16] = Test 14, CD strain BAA1805 (BI/NAP1/027), CFM + MET
[17] = Test 15, CD strain BAA1805 (BI/NAP1/027), CFM + MET
[18] = Test 16, CD strain BAA1805 (BI/NAP1/027), CFM + VAN
[19] = Test 17, CD strain BAA1805 (BI/NAP1/027), CFM + MET

CC(C)N=c1cc2n(-c3ccc(Cl)cc3)c3ccccc3nc-2cc1Nc1ccc(Cl)cc1 [CFM, 3-(p-chloroanilino)-10-(p-chlorophenyl)-2,10-dihydro-2-iso-propyliminophenazine]
0.25 µg/mL: MIC90 ([1]; Clostridioides difficile) | MIC90 ([1]; n = 37) | MBC (C. difficile; CD isolate NR13430, read-out: MBC) | MBC (C. difficile; CD isolate NR13432, read-out: MBC) | MBC (C. difficile; CD isolate NR13437, read-out: MBC) | MBC (C. difficile; CD isolate NR332884, read-out: MBC) | MBC (C. difficile; CD isolate VPI10463, read-out: MBC) | MIC (CD strains; BAA1805, Test 13, CD strain BAA1805 (BI/NAP1/027), CFM + VAN) | MIC (CD strains; BAA1805, Test 14, CD strain BAA1805 (BI/NAP1/027), CFM + MET) | MIC (CD strains; BAA1805, Test 15, CD strain BAA1805 (BI/NAP1/027), CFM + MET) | MIC (CD strains; BAA1805, Test 16, CD strain BAA1805 (BI/NAP1/027), CFM + VAN) | MIC (CD strains; BAA1805, Test 17, CD strain BAA1805 (BI/NAP1/027), CFM + MET) | MIC (CD strains; [2]) | MIC (CD strains; [3]) | MIC (CD strains; [4]) | MIC (CD strains; [5]) | MIC (CD strains; [6]) | MIC (CD strains; Test 19, CD strain NR32888, CFM + MET) | MIC (CD strains; Test 20, CD strain NR32888, CFM + VAN) | MIC (CD strains; Test 21, CD strain NR32888, CFM + MET)
0.062 µg/mL: MIC50 ([1]; Clostridioides difficile) | MIC50 ([1]; n = 37) | MIC combination (CD strains; [8]) | MIC combination (CD strains; [9]) | MIC combination (CD strains; [12]) | MIC combination (CD strains; [3]) | MIC combination (CD strains; [4]) | MIC combination (CD strains; [15]) | MIC combination (CD strains; [18])
0.015: FIC (CD strains; [16])
0.312: ΣFIC (CD strains; Test 13, CD strain BAA1805 (BI/NAP1/027), sum for combination CFM + VAN)
0.25: FIC (CD strains; [11]) | FIC (CD strains; [13]) | FIC (CD strains; [3]) | FIC (CD strains; [4]) | FIC (CD strains; [15]) | FIC (CD strains; [18])
0.5 µg/mL: MIC (C. perfringens MH310; BB) | MBC (C. difficile; CD isolate NR32882, read-out: MBC) | MBC (C. difficile; CD isolate NR32883, read-out: MBC)
0.375: ΣFIC (CD strains; Test 8, CD strain NR32885, sum for combination CFM + MET)
≦0.031-0.25 μg/ml: MIC Range ([1]; n = 37)
1: MBC/MIC (C. difficile; CD isolate BAA1805 (hyper-virulent strain BI/NAP1/027)) | ΣFIC (CD strains; Test 3, CD strain VPI 10463, sum for combination CFM + MET) | ΣFIC (CD strains; Test 4, CD strain VPI 10463, sum for combination CFM + MET) | FIC (CD strains; [10]) | ΣFIC (CD strains; Test 7, CD strain NR32885, sum for combination CFM + VAN) | ΣFIC (CD strains; Test 18, CD strain NR32888, sum for combination CFM + VAN)
0.5: FIC (CD strains; [8]) | FIC (CD strains; [9]) | FIC (CD strains; [12]) | ΣFIC (CD strains; Test 9, CD strain NR32885, sum for combination CFM + VAN) | ΣFIC (CD strains; Test 11, CD strain NR32885, sum for combination CFM + VAN) | ΣFIC (CD strains; Test 16, CD strain BAA1805 (BI/NAP1/027), sum for combination CFM + VAN) | FIC (CD strains; [6])
0.031: FIC (CD strains; [14]) | FIC (CD strains; [5]) | ΣFIC (CD strains; Test 14, CD strain BAA1805 (BI/NAP1/027), sum for combination CFM + MET) | FIC (CD strains; [19])
0.374: ΣFIC (CD strains; Test 1, CD strain VPI 10463, sum for combination CFM + VAN)
0.125 µg/mL: MIC ([1]; Clostridioides difficile, BAA1805, CD isolate BAA1805 (hyper-virulent strain BI/NAP1/027), Table 6) | MIC ([1]; Clostridioides difficile, BAA1805, CD strain BAA1805 (hyper-virulent strain BI/NAP1/027), BB) | MIC ([1]; Clostridioides difficile, BAA1805, CD strain BAA1805 (hyper-virulent strain BI/NAP1/027), BHI) | MBC (C. difficile; BAA1805) | MIC (CD strains) | MIC alone (CD strains; [8]) | MIC alone (CD strains; [9]) | MIC alone (CD strains; [10]) | MIC combination (CD strains; [10]) | MIC alone (CD strains; [11]) | MIC alone (CD strains; [12]) | MIC alone (CD strains; [13]) | MIC alone (CD strains; [14]) | MIC combination (CD strains; [6])
0.75: ΣFIC (CD strains; Test 6, CD strain NR32890, sum for combination CFM + VAN)
0.281: ΣFIC (CD strains; Test 2, CD strain VPI 10463, sum for combination CFM + VAN) | ΣFIC (CD strains; Test 10, CD strain NR32885, sum for combination CFM + MET) | ΣFIC (CD strains; Test 12, CD strain NR32885, sum for combination CFM + MET)
0.185: ΣFIC (CD strains; Test 15, CD strain BAA1805 (BI/NAP1/027), sum for combination CFM + MET)
0.031 µg/mL: MIC combination (CD strains; [2]) | MIC combination (CD strains; [11]) | MIC combination (CD strains; [13])
0.0039 µg/mL: MIC combination (CD strains; [7]) | MIC combination (CD strains; [14]) | MIC combination (CD strains; [16])
0.0078 µg/mL: MIC combination (CD strains; [5]) | MIC combination (CD strains; [19])
0.06: FIC (CD strains; [17])
2 and 1: MBC/MIC (C. difficile)
2: ΣFIC (CD strains; Test 5, CD strain NR32889, sum for combination CFM + VAN)
1-2: MBC/MIC ratio range (C. difficile)
0.156: ΣFIC (CD strains; Test 17, CD strain BAA1805 (BI/NAP1/027), sum for combination CFM + MET)
1 µg/mL: MIC (C. perfringens MH310; BHI)
0.0312: FIC (CD strains; [7])
0.015 µg/mL: MIC combination (CD strains; [17])
0.124: FIC (CD strains; [2])
